From patent US12357619B2, “Noradrenergic and specific serotonergic anxiolytic and antidepressant, method for the production and use thereof” (ALLA CHEM, LLC, priority 2020, dated 2025)

Key:
Adrenergic α2B = biological target: T1, Adrenergic α2B (Homo sapiens, UniProt P18089); assay: Receptor activities, Ki (Table 1); format: binding
T1 sequence (P18089 1-450): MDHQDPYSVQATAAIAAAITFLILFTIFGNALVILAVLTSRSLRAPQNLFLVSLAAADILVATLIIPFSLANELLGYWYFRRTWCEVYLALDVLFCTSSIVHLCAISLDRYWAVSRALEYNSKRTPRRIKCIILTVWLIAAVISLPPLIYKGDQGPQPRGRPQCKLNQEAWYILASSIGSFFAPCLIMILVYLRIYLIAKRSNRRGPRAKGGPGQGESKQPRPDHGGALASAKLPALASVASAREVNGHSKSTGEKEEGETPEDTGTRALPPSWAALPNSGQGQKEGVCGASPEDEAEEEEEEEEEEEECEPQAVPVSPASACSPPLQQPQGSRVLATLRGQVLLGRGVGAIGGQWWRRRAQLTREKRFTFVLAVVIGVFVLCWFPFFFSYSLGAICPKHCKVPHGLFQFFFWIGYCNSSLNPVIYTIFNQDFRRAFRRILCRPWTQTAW

[1] = system: people with generalized anxiety disorder (GAD); assay: Randomized double-blind placebo-controlled GAD study, visual analog scale (VAS); format: in vivo, human; conditions: after 8 weeks
Protocol: Example 12. Efficacy and safety study of the oral drug of this invention made as a pharmaceutical composition of this invention in capsules. […] During the study, 3 scheduled visits were conducted in Week 2, Week 4, and Week 8 to assess the effectiveness and safety of the therapy as well as drug inventory and administration. During all of those visits, the patient's diary was checked, a drug inventory was made and the patients' compliance was assessed. In addition, adverse events, concomitant therapy, and vital signs were evaluated, urine drug screen was performed, and assessments using Hamilton Anxiety Rating Scale (HARS), Hamilton Depression Scale (HAMD), Clinical Global Impression-Severity (CGI-S), Clinical Global Impression-Improvement (CGI-I), and Visual Analog Scale (VAS) were made; women of child-bearing potential will take a urine pregnancy test. Also, during visits at Week 4 and Week 8 a physical examination was performed, body weight was measured, an ECG was performed in 12 leads and blood and urine samples were obtained for laboratory tests, namely: urinalysis and biochemical blood analysis, PK analysis before and 1 hour after taking the study drug (SD), and urinalysis. At Week 4, a blood sample was also obtained for genotyping by CYP2D6. […] During this time, a possible development of SD withdrawal syndrome against the background of placebo was evaluated. […]

[2] = system: people with generalized anxiety disorder (GAD); assay: Randomized double-blind placebo-controlled GAD study, adverse events; format: in vivo, human
Protocol: Example 12. Efficacy and safety study of the oral drug of this invention made as a pharmaceutical composition of this invention in capsules. […] During the study, 3 scheduled visits were conducted in Week 2, Week 4, and Week 8 to assess the effectiveness and safety of the therapy as well as drug inventory and administration. During all of those visits, the patient's diary was checked, a drug inventory was made and the patients' compliance was assessed. In addition, adverse events, concomitant therapy, and vital signs were evaluated, urine drug screen was performed, and assessments using Hamilton Anxiety Rating Scale (HARS), Hamilton Depression Scale (HAMD), Clinical Global Impression-Severity (CGI-S), Clinical Global Impression-Improvement (CGI-I), and Visual Analog Scale (VAS) were made; women of child-bearing potential will take a urine pregnancy test. Also, during visits at Week 4 and Week 8 a physical examination was performed, body weight was measured, an ECG was performed in 12 leads and blood and urine samples were obtained for laboratory tests, namely: urinalysis and biochemical blood analysis, PK analysis before and 1 hour after taking the study drug (SD), and urinalysis. At Week 4, a blood sample was also obtained for genotyping by CYP2D6. At Week 8, treatment in the groups was completed, and all patients were prescribed a placebo to be taken during the follow-up period, which lasted 1 week. During this time, a possible development of SD withdrawal syndrome against the background of placebo was evaluated. During the visit at Week 9, the patient's diary was checked, a drug inventory was made and the patients' compliance was assessed. In addition, adverse events, concomitant therapy, and vital signs were evaluated, urine drug screen was performed, and assessments using the Hamilton Anxiety Rating Scale (HARS), Hamilton Depression Scale (HAMD), Clinical Global Impression-Severity (CGI-S), Clinical Global Impression-Improvement (CGI-I), and Visual Analog Scale (VAS) were made; women of child-bearing age will take a urine pregnancy test. At this point, the patients' participation in the study was completed, and they received recommendations for further treatment as part of standard GAD therapy.

Compound: Cc1ccc2c(c1)c1c(n2CCc2ccccc2)CCN(C)C1.Cl [A•HCl, 2,8-dimethyl-5-(2-phenylethyl)-2,3,4,5-tetrahydro-1H-pyrido[4,3-b]indole hydrochloride]
- Ki (Adrenergic α2B): 410 pM
- VAS average change (standard error) ([1]; 40 mg, N = 42, average at Week 0 24.1): −9.5 (3.24)
- VAS average change (standard error) ([1]; 60 mg, N = 44, average at Week 0 27.4): −11.1 (3.23)
- Adverse effect Bitter taste in mouth, pain in the left hypochondrium, % ([2]; 40 mg/day, 42 patients): 0.0%
- Adverse effect Bitter taste in mouth, pain in the left hypochondrium, N (number of people) ([2]; 40 mg/day, 42 patients): 0
- Adverse effect Constipation, % ([2]; 40 mg/day, 42 patients): 0.0%
- Adverse effect Constipation, N (number of people) ([2]; 40 mg/day, 42 patients): 0
- Adverse effect Daytime drowsiness, % ([2]; 40 mg/day, 42 patients): 2.4%
- Adverse effect Daytime drowsiness, N (number of people) ([2]; 40 mg/day, 42 patients): 1
- Adverse effect Decreased appetite, % ([2]; 40 mg/day, 42 patients): 2.4%
- Adverse effect Decreased appetite, N (number of people) ([2]; 40 mg/day, 42 patients): 1
- Adverse effect Dizziness, % ([2]; 40 mg/day, 42 patients): 0.0%
- Adverse effect Dizziness, N (number of people) ([2]; 40 mg/day, 42 patients): 0
- Adverse effect Elevated creatinine kinase level, % ([2]; 40 mg/day, 42 patients): 0.0%
- Adverse effect Elevated creatinine kinase level, N (number of people) ([2]; 40 mg/day, 42 patients): 0
- Adverse effect Headache, % ([2]; 40 mg/day, 42 patients): 4.8%
- Adverse effect Headache, N (number of people) ([2]; 40 mg/day, 42 patients): 2
- Adverse effect Impaired concentration, % ([2]; 40 mg/day, 42 patients): 0.0%
- Adverse effect Impaired concentration, N (number of people) ([2]; 40 mg/day, 42 patients): 0
- Adverse effect Increased psychic tension, % ([2]; 40 mg/day, 42 patients): 0.0%
- Adverse effect Increased psychic tension, N (number of people) ([2]; 40 mg/day, 42 patients): 0
- Adverse effect Insomnia, % ([2]; 40 mg/day, 42 patients): 2.4%
- Adverse effect Insomnia, N (number of people) ([2]; 40 mg/day, 42 patients): 1
- Adverse effect Jaw reduction, % ([2]; 40 mg/day, 42 patients): 0.0%
- Adverse effect Jaw reduction, N (number of people) ([2]; 40 mg/day, 42 patients): 0
- Adverse effect Low hemoglobin level, % ([2]; 40 mg/day, 42 patients): 2.4%
- Adverse effect Low hemoglobin level, N (number of people) ([2]; 40 mg/day, 42 patients): 1
- Adverse effect Nausea, % ([2]; 40 mg/day, 42 patients): 0.0%
- Adverse effect Nausea, N (number of people) ([2]; 40 mg/day, 42 patients): 0
- Adverse effect Nocturnal awakening, % ([2]; 40 mg/day, 42 patients): 0.0%
- Adverse effect Nocturnal awakening, N (number of people) ([2]; 40 mg/day, 42 patients): 0
- Adverse effect Sleepiness, % ([2]; 40 mg/day, 42 patients): 2.4%
- Adverse effect Sleepiness, N (number of people) ([2]; 40 mg/day, 42 patients): 1
- Adverse effect Tension in the body (back, arms, legs), % ([2]; 40 mg/day, 42 patients): 0.0%
- Adverse effect Tension in the body (back, arms, legs), N (number of people) ([2]; 40 mg/day, 42 patients): 0
- Adverse effect Tingling in the hands, % ([2]; 40 mg/day, 42 patients): 0.0%
- Adverse effect Tingling in the hands, N (number of people) ([2]; 40 mg/day, 42 patients): 0
- Adverse effect Weakness, % ([2]; 40 mg/day, 42 patients): 0.0%
- Adverse effect Weakness, N (number of people) ([2]; 40 mg/day, 42 patients): 0
- Adverse effect Bitter taste in mouth, pain in the left hypochondrium, % ([2]; 60 mg/day, 44 patients): 2.3%
- Adverse effect Bitter taste in mouth, pain in the left hypochondrium, N (number of people) ([2]; 60 mg/day, 44 patients): 1
- Adverse effect Constipation, % ([2]; 60 mg/day, 44 patients): 2.3%
- Adverse effect Constipation, N (number of people) ([2]; 60 mg/day, 44 patients): 1
- Adverse effect Daytime drowsiness, % ([2]; 60 mg/day, 44 patients): 0.0%
- Adverse effect Daytime drowsiness, N (number of people) ([2]; 60 mg/day, 44 patients): 0
- Adverse effect Decreased appetite, % ([2]; 60 mg/day, 44 patients): 0.0%
- Adverse effect Decreased appetite, N (number of people) ([2]; 60 mg/day, 44 patients): 0
- Adverse effect Dizziness, % ([2]; 60 mg/day, 44 patients): 9.1%
- Adverse effect Dizziness, N (number of people) ([2]; 60 mg/day, 44 patients): 4
- Adverse effect Elevated creatinine kinase level, % ([2]; 60 mg/day, 44 patients): 2.3%
- Adverse effect Elevated creatinine kinase level, N (number of people) ([2]; 60 mg/day, 44 patients): 1
- Adverse effect Headache, % ([2]; 60 mg/day, 44 patients): 13.6%
- Adverse effect Headache, N (number of people) ([2]; 60 mg/day, 44 patients): 6
- Adverse effect Impaired concentration, % ([2]; 60 mg/day, 44 patients): 2.3%
- Adverse effect Impaired concentration, N (number of people) ([2]; 60 mg/day, 44 patients): 1
- Adverse effect Increased psychic tension, % ([2]; 60 mg/day, 44 patients): 4.5%
- Adverse effect Increased psychic tension, N (number of people) ([2]; 60 mg/day, 44 patients): 2
- Adverse effect Insomnia, % ([2]; 60 mg/day, 44 patients): 0.0%
- Adverse effect Insomnia, N (number of people) ([2]; 60 mg/day, 44 patients): 0
- Adverse effect Jaw reduction, % ([2]; 60 mg/day, 44 patients): 2.3%
- Adverse effect Jaw reduction, N (number of people) ([2]; 60 mg/day, 44 patients): 1
- Adverse effect Low hemoglobin level, % ([2]; 60 mg/day, 44 patients): 0.0%
- Adverse effect Low hemoglobin level, N (number of people) ([2]; 60 mg/day, 44 patients): 0
- Adverse effect Nausea, % ([2]; 60 mg/day, 44 patients): 4.5%
- Adverse effect Nausea, N (number of people) ([2]; 60 mg/day, 44 patients): 2
- Adverse effect Nocturnal awakening, % ([2]; 60 mg/day, 44 patients): 2.3%
- Adverse effect Nocturnal awakening, N (number of people) ([2]; 60 mg/day, 44 patients): 1
- Adverse effect Sleepiness, % ([2]; 60 mg/day, 44 patients): 15.9%
- Adverse effect Sleepiness, N (number of people) ([2]; 60 mg/day, 44 patients): 7
- Adverse effect Tension in the body (back, arms, legs), % ([2]; 60 mg/day, 44 patients): 2.3%
- Adverse effect Tension in the body (back, arms, legs), N (number of people) ([2]; 60 mg/day, 44 patients): 1
- Adverse effect Tingling in the hands, % ([2]; 60 mg/day, 44 patients): 2.3%
- Adverse effect Tingling in the hands, N (number of people) ([2]; 60 mg/day, 44 patients): 1
- Adverse effect Weakness, % ([2]; 60 mg/day, 44 patients): 6.8%
- Adverse effect Weakness, N (number of people) ([2]; 60 mg/day, 44 patients): 3
- Safety profile and tolerability in patients ([2]; GAD patients, 40 and 60 mg/day, 8 weeks): favorable safety profile and good tolerability
- Side effects observed ([2]; dose of 60 mg, GAD patients): headache, drowsiness, dizziness, weakness, nausea, increased anxiety
